Target: T1, human FP receptor (Homo sapiens, UniProt P43088)
T1 construct: expressed in transfected cells
Test: Ca2+ signaling: antagonism of the 17-phenyl PGF2α response in HEK cells stably transfected with the human FP receptor
Assay type: cell-based
Conditions: compared with the compound of U.S. Pat. Nos. 5,100,889 and 5,153,327
Experimental: The compound of Example 22 was tested for PGF2αantagonist activity as follows:
HEK cells stably transfected with the human FP receptor were removed from the culture flasks by approximately 1 min treatment with trypsin 0.05%/0.53 mM EDTA in HBSS (Gibco, Grand Island, N.Y.) at 37° C. Proteolytic activity was arrested by adding 5 ml of 10% fetal bovine serum in DMEM. The cells were consecutively washed in Hank's BSS and medium containing 140 mM NaCl, […], 1 mM MgCl2, 1.5 mM CaCl2, 10 mM HEPES: TRIS, 5 mM glucose, 5 mM Na pyruvate, 0.1% bovine serum albumin at pH 7.4: centrifugation for the washes was performed for 15 minutes at 200 g at room temperature. Cells were counted, resuspended in the above medium and incubated with 2×10^−6 M Fura 2/acetoxymethyl ester in a shaking water bath for 30 minutes at 37° C. The cells were subsequently washed in medium as above and resuspended at a concentration of 2×10^6 cells ml^−1. Aliquots of 0.5 ml cell suspension were then added to autocap microtubes to provide 10^6 cells per experimental determination of intracellular free Ca^2+concentration ([Ca^2+]i).
Fluorescence was measured in a Perkin-Elmer LS-5 fluorescence spectrophotometer at excitation and emission wavelengths of 340 and 492 nm, respectively, with both slits at 10 nm. […]

T1 sequence (P43088 whole entry): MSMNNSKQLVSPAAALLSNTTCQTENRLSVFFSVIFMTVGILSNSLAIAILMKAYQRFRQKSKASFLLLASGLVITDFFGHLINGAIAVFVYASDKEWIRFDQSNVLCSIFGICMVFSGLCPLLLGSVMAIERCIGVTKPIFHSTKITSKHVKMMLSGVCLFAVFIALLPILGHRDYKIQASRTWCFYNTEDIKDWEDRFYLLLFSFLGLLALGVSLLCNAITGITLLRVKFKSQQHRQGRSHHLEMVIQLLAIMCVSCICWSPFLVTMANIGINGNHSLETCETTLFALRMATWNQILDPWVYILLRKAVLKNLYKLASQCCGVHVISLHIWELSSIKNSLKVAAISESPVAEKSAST

For `COC(=O)CCc1ccccc1CC1C2CCC(O2)C1c1nc(C(=O)NCCCCC2CCCCC2)co1` (centres unmarked), which “PGF2α antagonist activity (comparison in words)” value is on record?
The value was “much less active than the corresponding acid”.

How did the “PGF2α antagonist activity (comparison in words)” value turn out when `O=C(O)CCc1ccc(F)cc1C[C@@H]1[C@H](c2nc(C(=O)NCCCCC3CCCCC3)co2)[C@H]2CC[C@H]1O2` [Example 22, 3-(2-{(1R, 2R, 3S, 4R)-3-[4-(4-Cyclohexyl-butylcarbamoyl)-oxazol-2-yl]-7-oxa-bicyclo[2.2.1]hept-2-ylmethyl}-4-fluoro-phenyl)-propionic acid] was run?
Its value is “greater than the compound disclosed in U.S. Pat. Nos. 5,100,889 and 5,153,327”.
